Series [1] concerns UGT. Details: method as in PMID 17487234. Particulars: cited from earlier work.
Series [2] relates to UGT. Details: method as in PMID 3917507. The following applies: mice ref 19, cited from earlier work.
Series [3] relates to P–glycoprotein. Details: method as in PMID 12130727. The following applies: cited from earlier work.
For series [4] the following is noted: rat, in vivo, ip, 40 mg/kg; cited from earlier work.
For series [5] the following is noted: rat, in vivo, cited from earlier work.
The test system of another series is male Wistar rats. Kind of series: Tolerability in rats (AST, ALT, creatinine, physical appearance). In kind it is in vivo, rat.
A further series is described as follows: in vivo. The following applies: rat. The protocol:
Rats weighing more than 400 g were enrolled in the pharmacokinetic experiments. All rats were placed into metabolic cages and fasted overnight before the pharmacokinetic experiments. The rats were divided randomly into four groups (n = 6 in each): oxyresveratrol 100 mg/kg p.o., oxyresveratrol 100 mg/kg plus piperine 10 mg/kg p.o., oxyresveratrol 10 mg/kg i.v., and oxyresveratrol 10 mg/kg plus piperine 1 mg/kg i.v. All test formulations were freshly prepared by dissolving the compounds in 40% DMSO/NSS to obtain clear solution. The preparations were administered by oral gavage or intravenous administration via the lateral tail vein. […] Plasma samples were collected at baseline (0 h) and 24 h from a subset of rats for determination of AST, ALT and creatinine concentrations, performed by Professional Laboratory Management Crop Co., Ltd. Determination of the creatinine level was performed by the chemiluminescence method, while AST and ALT determination was performed with a kinetic method and measured using an automated analyzer (Cobas 6000; Hoffmann–La Roche, Ltd.). […]
The pharmacokinetic parameters were calculated by non–compartmental analysis using PK Solution 2.0 software (Summit Research Service). […] The absolute oral bioavailability of oxyresveratrol was calculated as (AUCp.o./dosep.o.)/(AUCi.v./dosei.v.). […]

Another series is described as follows: physchem. The following applies: %Recovery (stability).
The nature of series [6]: Tissue distribution, tissue to plasma ratio (Kp) in rats. In kind it is in vivo.
Series [7] has as its system P–glycoprotein. Particulars: cited from earlier work.
The mark [8] stands for this setting: intravenous, oxyresveratrol 10 mg/kg (+ piperine 1 mg/kg in combination), postdose (24 h).
The mark [9] stands for this setting: intravenous, oxyresveratrol 10 mg/kg (+ piperine 1 mg/kg in combination), predose (0 h) baseline.
The mark [10] stands for this setting: oral, oxyresveratrol 100 mg/kg (+ piperine 10 mg/kg in combination), postdose (24 h).
[11] abbreviates: oral, oxyresveratrol 100 mg/kg (+ piperine 10 mg/kg in combination), predose (0 h) baseline.

Molecules are shown by their SMILES. Read-outs that look alike come from different tables or passages of the source.

The values that follow come from publication PMC6720094, “Comparative pharmacokinetics of oxyresveratrol alone and in combination with piperine as a bioenhancer in rats” (BMC Complementary and Alternative Medicine, 2019).

Experimental for male Wistar rats: Rats weighing more than 400 g were enrolled in the pharmacokinetic experiments. All rats were placed into metabolic cages and fasted overnight before the pharmacokinetic experiments. The rats were divided randomly into four groups (n = 6 in each): oxyresveratrol 100 mg/kg p.o., oxyresveratrol 100 mg/kg plus piperine 10 mg/kg p.o., oxyresveratrol 10 mg/kg i.v., and oxyresveratrol 10 mg/kg plus piperine 1 mg/kg i.v. All test formulations were freshly prepared by dissolving the compounds in 40% DMSO/NSS to obtain clear solution. The preparations were administered by oral gavage or intravenous administration via the lateral tail vein. All rats were anaesthetized with 5% isoflurane by chamber induction method to prevent pain and injury during drug administration and blood collection. The blood collection was conducted at 0, 0.083 (5 min), 0.25 (15 min), 0.5 (30 min), 1, 2, 4, 8, 16 and 24 h in unconscious rats. For tissue collection, euthanization with overdose isoflurane > 10% by chamber induction method was conducted at 0.083 (5 min), 1, 2 and 4 h after oral gavage or intravenous administration, and death was confirmed by exsanguination. […] Plasma samples were collected at baseline (0 h) and 24 h from a subset of rats for determination of AST, ALT and creatinine concentrations, performed by Professional Laboratory Management Crop Co., Ltd. Determination of the creatinine level was performed by the chemiluminescence method, while AST and ALT determination was performed with a kinetic method and measured using an automated analyzer (Cobas 6000; Hoffmann–La Roche, Ltd.).

As to `O=C(/C=C/C=C/c1ccc2c(c1)OCO2)N1CCCCC1` [piperine, Piperine], the “Hepatic microsomal activity of UGT in vitro” value in the series with UGT [1] is “reduces”. Also, the “Decrease of in vivo UGT activity” value was 36% with UGT [2] (piperine 10 mg/kg p.o.) and 55% in the series with UGT [2] (piperine 25 mg/kg p.o.). Besides, the “Inhibition of P–glycoprotein” value with P–glycoprotein [3] is given as “inhibit”.
With `Oc1cc(O)cc(C=Cc2ccc(O)cc2O)c1` [Oxyresveratrol, 2,4,3′,5′–tetrahydroxystilbene], in [4], the “Concentration reaching the brain” value is “only a minimal concentration reached the brain”. Besides, the Tmax result in [5] (po) was “approximately 15 min”. Also, the Absolute oral bioavailability in series [5] is on record as 10–15%. In addition, in the series on male Wistar rats (setting [8]), the ALT was 5.80 ± 1.09 U/L, the AST was found to be 45.40 ± 3.78 U/L and the Creatinine is recorded as 0.32 ± 0.08 mg/dL. Besides, in the series with male Wistar rats (setting [9]), the ALT turned out to be 5.00 ± 0.00 U/L, the AST came out at 42.00 ± 7.15 U/L and the Creatinine turned out to be 0.25 ± 0.15 mg/dL. The Physical appearance result in the series on male Wistar rats (male Wistar rats, pre-dose and post-dose (24 h), i.v. and oral) was “normal physical appearance”. For the same molecule, in the series with male Wistar rats (setting [10]), the ALT is 6.83 ± 3.25 U/L, the AST turned out to be 40.83 ± 22.39 U/L and the Creatinine worked out at 0.17 ± 0.01 mg/dL. For the same molecule, in the series with male Wistar rats (setting [11]), the ALT worked out at 9.40 ± 9.28 U/L, the AST came to 32.40 ± 16.47 U/L and the Creatinine came out at 0.17 ± 0.01 mg/dL. The molecule also registered a dose excreted in the series “in vivo” (Wistar, in vivo, iv, Percentage recovery of unchanged oxyresveratrol in urine) of 5 to 10%. Moreover, the “Unchanged oxyresveratrol found in feces” value in the series “in vivo” (0 to 48 h after intravenous dosing) is given as below 1%. Moreover, in “physchem”, the recovery at 100 ng/mL was determined as 92.6%; the recovery at 400 ng/mL was 86.3%; the recovery at 12 h, 10 ng/mL amounted to 63.5%; the recovery at 12 h, 100 ng/mL came out at 73.5%. In “physchem”, this molecule yielded a recovery at 12 h, 400 ng/mL of 68.2%; a recovery at 30 d, 10 ng/mL of 72.4%; a recovery at 30 d, 100 ng/mL of 85.8%; a recovery at 30 d, 400 ng/mL of 81.1%. The Kp in [6] (male, Wistar, in vivo, 100 mg/kg, rat, oral gavage, from 5 min to 4 h, read-out: Tissue to plasma ratio of oxyresveratrol, other internal organs (not stomach, small intestine)) was 1 to 100. Also, the Kp at 5 min in series [6] (male, Wistar, rat, in vivo, iv) was 10 to 100. In addition, in series [6] (rat, 1, 2 and 4 h after intravenous administration), the “Oxyresveratrol level in the brain” value is given as “Very low levels”. In addition, the “%Recovery (stability)” value (100 ng/mL) worked out at 72.84%. For the setting “400 ng/mL”, the “%Recovery (stability)” value stood at 70.43%. In addition, the “P–glycoprotein substrate” value in the series with P–glycoprotein [7] is “substrate of P–glycoprotein”.
